In the CheMixHub viscosity set:

Assay: xn = mol fraction of the nth substance listed

COCCO + CCCO
Settings	viscosity [mPa·s]
298.15 K, 100 kPa, x1 = 0.1005	1.79
298.15 K, 100 kPa, x1 = 0.2016	1.68
298.15 K, 100 kPa, x1 = 0.3013	1.61
298.15 K, 100 kPa, x1 = 0.4012	1.56
298.15 K, 100 kPa, x1 = 0.5013	1.53
298.15 K, 100 kPa, x1 = 0.6005	1.52
298.15 K, 100 kPa, x1 = 0.7008	1.52
298.15 K, 100 kPa, x1 = 0.8003	1.52
298.15 K, 100 kPa, x1 = 0.9001	1.54
298.15 K, 101 kPa, x1 = 0.08067	1.901
298.15 K, 101 kPa, x1 = 0.1649	1.776
298.15 K, 101 kPa, x1 = 0.2529	1.692
298.15 K, 101 kPa, x1 = 0.3449	1.65
298.15 K, 101 kPa, x1 = 0.4413	1.624
298.15 K, 101 kPa, x1 = 0.5423	1.601
298.15 K, 101 kPa, x1 = 0.6482	1.59
298.15 K, 101 kPa, x1 = 0.7596	1.58
298.15 K, 101 kPa, x1 = 0.8767	1.571
298.15 K, 101.33 kPa, x1 = 0.0072	1.938
298.15 K, 101.33 kPa, x1 = 0.0141	1.926
298.15 K, 101.33 kPa, x1 = 0.0297	1.898
298.15 K, 101.33 kPa, x1 = 0.0471	1.867
298.15 K, 101.33 kPa, x1 = 0.062	1.844
308.15 K, 101 kPa, x1 = 0.08067	1.34
308.15 K, 101 kPa, x1 = 0.1014	1.435
308.15 K, 101 kPa, x1 = 0.1502	1.402
308.15 K, 101 kPa, x1 = 0.1649	1.264
308.15 K, 101 kPa, x1 = 0.2508	1.351
308.15 K, 101 kPa, x1 = 0.2529	1.249
308.15 K, 101 kPa, x1 = 0.3049	1.331
308.15 K, 101 kPa, x1 = 0.3449	1.227
308.15 K, 101 kPa, x1 = 0.3667	1.301
308.15 K, 101 kPa, x1 = 0.4257	1.303
308.15 K, 101 kPa, x1 = 0.4413	1.206
308.15 K, 101 kPa, x1 = 0.4838	1.28
308.15 K, 101 kPa, x1 = 0.5161	1.278
308.15 K, 101 kPa, x1 = 0.5378	1.276
308.15 K, 101 kPa, x1 = 0.5423	1.179
308.15 K, 101 kPa, x1 = 0.5647	1.279
308.15 K, 101 kPa, x1 = 0.6129	1.27
308.15 K, 101 kPa, x1 = 0.6482	1.154
308.15 K, 101 kPa, x1 = 0.67	1.252
308.15 K, 101 kPa, x1 = 0.7387	1.25
308.15 K, 101 kPa, x1 = 0.7596	1.131
308.15 K, 101 kPa, x1 = 0.7685	1.251
308.15 K, 101 kPa, x1 = 0.8213	1.251
308.15 K, 101 kPa, x1 = 0.8767	1.125
308.15 K, 101 kPa, x1 = 0.8898	1.253
308.15 K, 101 kPa, x1 = 0.9239	1.253
308.15 K, 101 kPa, x1 = 0.9491	1.26
308.15 K, 101 kPa, x1 = 0.9574	1.264
308.15 K, 101 kPa, x1 = 0.9686	1.277
308.15 K, 101 kPa, x2 = 0.0129	1.288
308.15 K, 101.33 kPa, x1 = 0.117	1.362
308.15 K, 101.33 kPa, x1 = 0.1795	1.319
308.15 K, 101.33 kPa, x1 = 0.3024	1.26
308.15 K, 101.33 kPa, x1 = 0.4526	1.207
308.15 K, 101.33 kPa, x1 = 0.5265	1.192
308.15 K, 101.33 kPa, x1 = 0.6439	1.185
308.15 K, 101.33 kPa, x1 = 0.7915	1.182
308.15 K, 101.33 kPa, x1 = 0.8693	1.174
313.15 K, 100 kPa, x1 = 0.1005	1.3
313.15 K, 100 kPa, x1 = 0.2016	1.23
313.15 K, 100 kPa, x1 = 0.3013	1.19
313.15 K, 100 kPa, x1 = 0.4012	1.16
313.15 K, 100 kPa, x1 = 0.5013	1.15
313.15 K, 100 kPa, x1 = 0.6005	1.14
313.15 K, 100 kPa, x1 = 0.7008	1.14
313.15 K, 100 kPa, x1 = 0.8003	1.15
313.15 K, 100 kPa, x1 = 0.9001	1.16
318.15 K, 101 kPa, x1 = 0.08067	1.099
318.15 K, 101 kPa, x1 = 0.1014	1.168
318.15 K, 101 kPa, x1 = 0.1502	1.142
318.15 K, 101 kPa, x1 = 0.1649	1.058
318.15 K, 101 kPa, x1 = 0.2508	1.089
318.15 K, 101 kPa, x1 = 0.2529	1.003
318.15 K, 101 kPa, x1 = 0.3049	1.079
318.15 K, 101 kPa, x1 = 0.3449	0.9764
318.15 K, 101 kPa, x1 = 0.3667	1.062
318.15 K, 101 kPa, x1 = 0.4257	1.052
318.15 K, 101 kPa, x1 = 0.4413	0.9794
318.15 K, 101 kPa, x1 = 0.4838	1.036
318.15 K, 101 kPa, x1 = 0.5161	1.029
318.15 K, 101 kPa, x1 = 0.5378	1.032
318.15 K, 101 kPa, x1 = 0.5423	0.9701
318.15 K, 101 kPa, x1 = 0.5647	1.028
318.15 K, 101 kPa, x1 = 0.6129	1.021
318.15 K, 101 kPa, x1 = 0.6482	0.9645
318.15 K, 101 kPa, x1 = 0.67	1.017
318.15 K, 101 kPa, x1 = 0.7387	1.018
318.15 K, 101 kPa, x1 = 0.7596	0.9589
318.15 K, 101 kPa, x1 = 0.7685	1.018
318.15 K, 101 kPa, x1 = 0.8213	1.016
318.15 K, 101 kPa, x1 = 0.8767	0.9552
318.15 K, 101 kPa, x1 = 0.8898	1.022
318.15 K, 101 kPa, x1 = 0.9239	1.025
318.15 K, 101 kPa, x1 = 0.9491	1.029
318.15 K, 101 kPa, x1 = 0.9574	1.028
318.15 K, 101 kPa, x1 = 0.9686	1.027
318.15 K, 101 kPa, x2 = 0.0129	1.029
